The values that follow come from PMC6328429, “Synthesis of a benzoxazinthione derivative of tanaproget and pharmacological evaluation for PET imaging of PR expression” (EJNMMI Radiopharmacy and Chemistry, 2019).

Structures are written as SMILES.

Series [1] addresses T1, progesterone receptor (PR) (Homo sapiens, UniProt P06401).
T1 construct: endogenous in cells; host or cells: T47D breast carcinoma cells
T1 sequence (P06401 1-933): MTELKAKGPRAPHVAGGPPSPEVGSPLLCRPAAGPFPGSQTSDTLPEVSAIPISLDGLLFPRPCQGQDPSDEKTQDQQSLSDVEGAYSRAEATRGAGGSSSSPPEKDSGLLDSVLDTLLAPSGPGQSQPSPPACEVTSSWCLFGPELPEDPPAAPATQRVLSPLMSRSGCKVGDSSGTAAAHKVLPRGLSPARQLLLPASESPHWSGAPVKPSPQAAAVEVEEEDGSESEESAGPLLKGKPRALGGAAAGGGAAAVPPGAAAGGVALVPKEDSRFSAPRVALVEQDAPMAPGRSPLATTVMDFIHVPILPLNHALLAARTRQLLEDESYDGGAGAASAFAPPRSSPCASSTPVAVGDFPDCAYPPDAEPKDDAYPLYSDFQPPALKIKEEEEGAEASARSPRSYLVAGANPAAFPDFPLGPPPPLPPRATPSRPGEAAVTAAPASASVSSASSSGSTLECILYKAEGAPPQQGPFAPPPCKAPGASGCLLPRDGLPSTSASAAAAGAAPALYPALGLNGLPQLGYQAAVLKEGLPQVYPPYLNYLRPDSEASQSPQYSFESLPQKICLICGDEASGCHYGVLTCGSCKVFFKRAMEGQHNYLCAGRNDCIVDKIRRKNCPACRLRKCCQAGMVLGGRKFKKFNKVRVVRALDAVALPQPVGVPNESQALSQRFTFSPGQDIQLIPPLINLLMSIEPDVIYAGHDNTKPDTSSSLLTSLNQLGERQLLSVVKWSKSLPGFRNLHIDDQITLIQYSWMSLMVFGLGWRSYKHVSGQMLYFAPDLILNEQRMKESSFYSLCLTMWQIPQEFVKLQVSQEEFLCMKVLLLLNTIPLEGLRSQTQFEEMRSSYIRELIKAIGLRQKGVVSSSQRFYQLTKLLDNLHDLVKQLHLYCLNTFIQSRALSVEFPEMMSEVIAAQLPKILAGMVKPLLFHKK
The experiment in a line: T47D alkaline phosphatase (AP) potency assay. In kind it is cell-based. The following applies: for EC50 / T47D alkaline phosphatase assay EC50: agonist response, 48 h incubation; for EC50 / T47D alkaline phosphatase assay EC50 / IC50: average of at least n = 3 ± SD; for IC50: inhibition of progesterone. How it is done: The method described by Di Lorenzo et al was followed with minor adaptation (Di Lorenzo et al., [1991]). In brief, T47D breast carcinoma cells were seeded in 96-well plates at 50,000 cell/well in RPMI medium supplemented with 10% FBS. After overnight culture, the medium was changed to RPMI phenol red free containing 2% charcoal-stripped FBS. After 24 h, the cells were treated with progesterone (Sigma Aldrich, Gillingham, UK) or the library compounds. Progesterone and the test compounds were dissolved in DMSO (100%) and diluted into treatment medium to give a final DMSO (v/v) concentration of 0.1%. After incubation (48 h) the treatment was finalised by twice washing the plates with PBS. Cells were lysed by two freeze-thaw cycles (− 80 °C). Cellular alkaline phosphatase activity was determined by adding Femto ELISA-AP substrate (200 μL) and optical density measurements taken at 5 and 10 min intervals at a wavelength of 405 nm. Data was interpreted using Graphpad Prism (GraphPad, CA, USA) using the model: dose-response simulation/inhibition, log(agonist/inhibition) vs. response – variable slope (four parameters). For compounds where EC50 > 10,000, an antagonist profile was assumed and the experiment was repeated with the inclusion of progesterone (3 mM) with the library compound. Data shown in the supporting information (Additional file 1: Figure S32).

Series [2] is described as follows: In vitro non-radioactive metabolite analysis and clearance in MLM. It is filed as in vitro ADME, mouse. How it is done:
(§1) Microsomal incubations were performed using a Hamilton Microlab Star liquid handling workstation (Hamilton Robotics, Bonaduz, Switzerland). Test compound 2 (final concentration 1 or 10 μM, 1% DMSO) was pre-incubated at 37 °C for 10 min in MLM or HLM (final concentration 1 mg/ml prepared in 10 mM PBS). Reactions were initiated by the addition of NADPH (final concentration 1 mM). Aliquots were removed from each incubation and quenched in 3 volumes of ice-cold MeOH containing internal standard olomoucine (500 nM in MeOH) at − 1, 0, 5, 15, 30 and 60 min. Incubations were conducted in singlicate. […] Terminated incubations were centrifuged at 3700 rpm at 4 °C for 30 min and supernatant taken for analysis. Microsomal incubations were analysed by liquid chromatography-tandem mass spectrometry (LC-MS/MS). This consisted of a Dionex Ultimate 3000 UHPLC system coupled to a ThermoScientific Q Exactive Plus orbitrap mass spectrometer (Thermo Fisher Scientific Inc., Waltham, USA). Chromatographic separation was achieved using an Acquity UPLC HSS T3 column (1.8 μm, 100 × 2.1 mm) (Waters, Elstree, UK) at 50 °C and a binary mobile phase gradient at a flow rate of 0.4 ml/min. Initial LC conditions comprised 10% formic acid (0.1%) in water (A), 90% methanol (B). This was ramped to […] at 12 min. Sample analysis was by positive ion electrospray ionization. The capillary voltage was 3.5 kV. Full MS/dd-MS^2 (full MS scan followed by data dependent MS/MS) and Full MS/AIF (full MS scan followed by all ion fragmentation) workflows were used in combination. Full MS was performed at a resolution of 70,000, AGC target 1 e^6; dd-MS2 at a resolution of 17,5000, AGC target 1 e^5. LC-MS response (peak area of the analyte/peak area of internal standard) was fitted to a nonlinear single exponential model using software GraphPad Prism software (v6.07, GraphPad Software, Inc., La Jolla, USA). Elimination rate constant (k) was determined and intrinsic clearance, CLint, was calculated as CLint = (V.k)/mg protein where V is the incubation volume (μl) and mg protein is the mg microsomal protein in the incubation. Identification of metabolites in microsomal incubations and elucidation of their structures was undertaken with Compound Discoverer software (v2.0.0.303, Thermo Fisher Scientific Inc., Waltham, USA).

Series [3] can be described thus: In vitro non-radioactive metabolite analysis and clearance in HLM. In kind it is in vitro ADME, human. How it is done:
as §1

Broadly, the EC50 is the concentration at which the effect is half-maximal. As usually defined, the IC50 is the concentration that inhibits the measured activity by half. For `CC1(C)OC(=O)Nc2ccc(-c3cccnc3F)cc21` [Compound 1, 6-(2-fluoropyridin-3-yl)-4,4-dimethyl-1H-benzo[d][1,3]oxazin-2(4H)-one], in series [1], the EC50 is more than 10000 nM, the “T47D alkaline phosphatase assay EC50” value is “did not induce an agonist response” and half-maximal inhibition (IC50) was put at 844.8 ± 0.23 nM. Besides, the “Clearance (CLint) in MLM” value in series [2] (MLM 1 mg/ml, NADPH 1 mM, 37 °C) was “comparable clearance”. In series [2] (MLM incubation, LC-MS/MS), the “Metabolite identification by mass spectrometry in MLM” value is listed as “defluorinated species”. Also, the “Clearance (CLint) in HLM” value in series [3] (HLM 1 mg/ml, NADPH 1 mM, 37 °C) is on record as “comparable clearance”. Moreover, in series [3] (HLM incubation, LC-MS/MS), the “Metabolite identification by mass spectrometry in HLM” value was “defluorinated species”.
As to `CC1(C)OC(=O)Nc2ccc(-c3ccc(F)nc3)cc21` [Compound 3, 6-(6-fluoropyridin-3-yl)-4,4-dimethyl-1H-benzo[d][1,3]oxazin-2(4H)-one], in series [1], the EC50 was more than 10000 nM, the “T47D alkaline phosphatase assay EC50” value is recorded as “did not induce an agonist response” and half-maximal inhibition (IC50) required 795 ± 0.25 nM.
In turn, `CC1(C)OC(=S)Nc2ccc(-c3ccc(F)nc3)cc21` [Compound 4, 6-(6-fluoropyridin-3-yl)-4,4-dimethyl-1H-benzo[d][1,3]oxazine-2(4H)-thione] gave an EC50 in series [1] of 3674 ± 0.08 nM.
In the case of `CC1(C)OC(=O)Nc2ccc(-c3ccc(F)c(Cl)c3)cc21` [Compound 5, 6-(3-chloro-4-fluorophenyl)-4,4-dimethyl-1H-benzo[d][1,3]oxazin-2(4H)-one], in series [1], the EC50 amounted to 2294 ± 0.29 nM.
`CC1(C)OC(=S)Nc2ccc(-c3ccc(F)c(Cl)c3)cc21` [Compound 6, 6-(3-chloro-4-fluorophenyl)-4,4-dimethyl-1H-benzo[d][1,3]oxazine-2(4H)-thione]: the EC50 in series [1] is 432.5 ± 0.24 nM. The “fold more potent (EC50) than oxocarbamate derivative 5” value in series [1] (compound 6 versus 5) is given as approximately 5 fold.
With `Cn1c(C#N)ccc1-c1ccc2c(c1)C(C)(C)OC(=S)N2` [TNP, Tanaproget], in series [1], the half-maximal effective concentration (EC50) worked out at 0.5 nM.
